PMC6767355 (Journal of Medicinal Chemistry, 2019)
Where two headings read alike, the source gives them in different places.

What was measured:
NDM-1 = target: T1, NDM-1 (Klebsiella pneumoniae, UniProt C7C422); format: biochemical; settings: pre-incubation 0-180 min; supports reversible inhibition
T1 construct: made in house

L1 [1] = target: T2, L1 (Stenotrophomonas maltophilia, UniProt P52700); assay: β-lactamase inhibition, fluorogenic FC5 hydrolysis assay; format: biochemical
T2 construct: made in house

L1 [2] = target: T2, L1; settings: cited from earlier work
CphA = target: T3, CphA (Aeromonas hydrophila, UniProt P26918); settings: cited from earlier work
T3 construct: made in house

[3] = test system: six NDM-1-producing clinical isolates of Escherichia coli and Klebsiella pneumoniae; assay: Antimicrobial susceptibility testing, MIC, summary over six clinical isolates; format: cell-based; settings: read-out: MIC in the absence of VNRX-5133; all six NDM-1-producing isolates
Description: (§1) Minimal inhibitory concentration (MIC) values were determined by the agar dilution method and interpreted using published guidelines described by EUCAST/CLSI.[57] All reported MIC values are within ±1 log2 dilution of the reference MIC values.

[4] = test system: NDM-1-producing Escherichia coli clinical isolates; assay: Antimicrobial susceptibility testing, MIC by agar dilution; format: cell-based; settings: antibiotic alone; for MIC: Escherichia coli, strain S117, Ec, read-out: Cef/MEM MIC
Description: as §1

[5] = test system: NDM-1-producing Klebsiella pneumoniae clinical isolates; assay: as above; format: cell-based; settings: antibiotic alone; for MIC: Klebsiella pneumoniae, strain B64, Kp, read-out: Cef/MEM MIC
Description: as §1

OXA-10 = target: T4, OXA-10 (Pseudomonas aeruginosa, UniProt P14489); settings: cited from earlier work
T4 construct: made in house
T4 sequence (P14489 20-266, species assumed): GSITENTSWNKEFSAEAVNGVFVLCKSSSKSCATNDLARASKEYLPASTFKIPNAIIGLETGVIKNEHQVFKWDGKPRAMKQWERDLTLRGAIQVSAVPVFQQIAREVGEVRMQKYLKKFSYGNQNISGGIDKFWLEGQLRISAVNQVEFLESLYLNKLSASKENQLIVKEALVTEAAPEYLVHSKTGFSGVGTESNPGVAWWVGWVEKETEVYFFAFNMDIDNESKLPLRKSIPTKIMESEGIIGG

T2 sequence (P52700 34-290): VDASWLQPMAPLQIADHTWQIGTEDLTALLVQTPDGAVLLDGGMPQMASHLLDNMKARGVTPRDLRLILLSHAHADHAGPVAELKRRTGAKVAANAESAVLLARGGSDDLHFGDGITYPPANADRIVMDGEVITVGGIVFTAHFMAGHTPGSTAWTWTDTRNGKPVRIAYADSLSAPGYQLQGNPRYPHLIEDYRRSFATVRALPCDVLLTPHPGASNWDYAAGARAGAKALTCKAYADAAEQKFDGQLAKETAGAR
T3 sequence (P26918 28-254): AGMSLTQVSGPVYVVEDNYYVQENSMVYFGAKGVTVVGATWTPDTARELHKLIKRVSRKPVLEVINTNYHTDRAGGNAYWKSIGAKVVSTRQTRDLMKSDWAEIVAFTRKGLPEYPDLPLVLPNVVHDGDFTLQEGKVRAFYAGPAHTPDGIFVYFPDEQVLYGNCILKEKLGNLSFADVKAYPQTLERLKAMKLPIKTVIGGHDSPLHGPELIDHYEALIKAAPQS
T1 sequence (C7C422 29-270, looked up, species assumed): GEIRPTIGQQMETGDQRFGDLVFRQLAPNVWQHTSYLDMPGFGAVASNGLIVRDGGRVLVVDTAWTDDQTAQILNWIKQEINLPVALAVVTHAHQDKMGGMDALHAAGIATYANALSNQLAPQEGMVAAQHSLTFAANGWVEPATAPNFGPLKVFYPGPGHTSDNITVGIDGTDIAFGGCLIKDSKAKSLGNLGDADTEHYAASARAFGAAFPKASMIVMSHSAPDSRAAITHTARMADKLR

Row | Compound | MIC [3] | MIC [4] | Cef/MEM MIC ([4]; strain 91N, Ec) | Cef/MEM MIC ([4]; strain IR57, Ec) | MIC [5] | Cef/MEM MIC ([5]; strain B68-1, Kp) | Cef/MEM MIC ([5]; strain IR43, Kp) | further results
1 | NCCN[C@H]1CC[C@H](CC(=O)N[C@H]2Cc3cccc(C(=O)O)c3OB2O)CC1 [VNRX-5133, (R)-3-(2-(trans-4-((2-Aminoethyl)amino)cyclohexyl)acetamido)-2-hydroxy-3,4-dihydro-2H-benzo[e][1,2]oxaborinine-8-carboxylic Acid] |  |  |  |  |  |  |  | effect of variation in pre-incubation time on IC50, NDM-1 (NDM-1): did not result in different IC50 values; inhibition of subclass B3 MBL L1 (in words) (L1 [1]): nor did it inhibit; IC50 (L1 [1]; B3 MBL, FC5): > 10 µM
2 | NCc1ccc(C(=O)N[C@H]2Cc3cccc(C(=O)O)c3OB2O)cc1 [CB2] |  |  |  |  |  |  |  | IC50 L1 (L1 [2]): not inhibited[41]; IC50 (CphA): > 100 µM
3 | CO/N=C(\C(=O)N[C@@H]1C(=O)N2C(C(=O)[O-])=C(C[N+]3(C)CCCC3)CS[C@H]12)c1csc(N)n1 [Cef, cefepime] | > 64 µg/mL | > 64 µg/mL | >64 μg mL^–1 | >64 μg mL^–1 | > 64 µg/mL | >64 μg mL^–1 | >64 μg mL^–1 | 
4 | C[C@@H](O)[C@H]1C(=O)N2C(C(=O)O)=C(S[C@@H]3CN[C@H](C(=O)N(C)C)C3)[C@H](C)[C@H]12 [MEM, meropenem] | > 64 µg/mL | > 64 µg/mL | >64 μg mL^–1 | >64 μg mL^–1 | > 64 µg/mL | >64 μg mL^–1 | >64 μg mL^–1 | 
5 | O=C(O)C[C@@H]1CC[C@H](NC(=O)Cc2cccs2)B(O)O1 [vaborbactam] |  |  |  |  |  |  |  | IC50 (OXA-10; 100 mM aqueous sodium bicarbonate, read-out: IC50 OXA-10 (b)): > 400 µM; inhibition of OXA-10 (in words) (OXA-10): not inhibited; IC50 (OXA-10; without sodium bicarbonate, read-out: IC50 OXA-10): > 400 µM
